From patent US8324245B2, “Quinoline derivative and quinazoline derivative inhibiting self-phosphorylation of hepatocytus proliferator receptor, and medicinal composition containing the same” (Kyowa Hakko Kirin Co., Ltd., priority 2001, dated 2012)

molecular target: T1, met (HGF receptor) in human gastric cancer cells MKN45 (Homo sapiens, UniProt P08581); experiment: Inhibitory activity against met-autophosphorylation using ELISA method (2), MKN45 cells, HGF-independent; format: cell-based
T1 construct: endogenous in cells; host or cells: MKN45 human gastric cancer cells
Procedure: Cells were cultured with RPMI medium containing 0.1% fetal calf serum in 96-well flat-bottom plate in an amount of 3×10^4 per well, and were incubated at 37° C. overnight. The medium was then replaced by a fresh RPMI medium containing 0.1% fetal calf serum. A solution of the test compound in dimethyl sulfoxide was added to each well, and the incuvation was continued at 37° C. for additional one hr. The medium was removed, the cells were washed with phosphate buffered saline (pH 7.4), and 50 μl of a lysis buffer (20 mM HEPES (pH 7.4), 150 mM NaCl, 0.2% Triton X-100, 10% glycerol, 5 mM sodium orthovanadylate, 5 mM disodium ethylenediaminetetraacetate, and 2 mM Na4P2O7) was then added thereto. The mixture was shaken at 4° C. for 2 hr to prepare a cell extract.
Separately, phosphate buffered saline (50 μl, pH 7.4) containing 5 μg/ml of anti-phospho-tyrosine antibody (PY20; purchased from Transduction Laboratories) was added to a microplate for ELISA (Maxisorp; purchased from NUNC), followed by gentle agitation at 4° C. overnight to coat the surface of the wells with the antibody. After washing of the plate, 300 μl of a blocking solution was added, followed by gentle agitation at room temperature for 2 hr to perform blocking. After washing, the whole quantity of the cell extract was transferred to the wells, and the plate was then allowed to stand at 4° C. overnight. After washing, an anti-HGF receptor antibody (h-Met (C-12), purchased from Santa Cruz Biotechnology) was allowed to react at room temperature for one hr, and, after washing, a peroxidase-labeled anti-rabbit Ig antibody (purchased from Amersham) was allowed to react at room temperature for one hr. After washing, a chromophoric substrate for peroxidase (purchased from Sumitomo Bakelite Co., Ltd.) was added thereto to initiate a reaction. After a suitable level of color development, a reaction termination solution was added to stop the reaction, and the absorbance at 450 nm was measured with a microplate reader.

T1 sequence (P08581 25-1390): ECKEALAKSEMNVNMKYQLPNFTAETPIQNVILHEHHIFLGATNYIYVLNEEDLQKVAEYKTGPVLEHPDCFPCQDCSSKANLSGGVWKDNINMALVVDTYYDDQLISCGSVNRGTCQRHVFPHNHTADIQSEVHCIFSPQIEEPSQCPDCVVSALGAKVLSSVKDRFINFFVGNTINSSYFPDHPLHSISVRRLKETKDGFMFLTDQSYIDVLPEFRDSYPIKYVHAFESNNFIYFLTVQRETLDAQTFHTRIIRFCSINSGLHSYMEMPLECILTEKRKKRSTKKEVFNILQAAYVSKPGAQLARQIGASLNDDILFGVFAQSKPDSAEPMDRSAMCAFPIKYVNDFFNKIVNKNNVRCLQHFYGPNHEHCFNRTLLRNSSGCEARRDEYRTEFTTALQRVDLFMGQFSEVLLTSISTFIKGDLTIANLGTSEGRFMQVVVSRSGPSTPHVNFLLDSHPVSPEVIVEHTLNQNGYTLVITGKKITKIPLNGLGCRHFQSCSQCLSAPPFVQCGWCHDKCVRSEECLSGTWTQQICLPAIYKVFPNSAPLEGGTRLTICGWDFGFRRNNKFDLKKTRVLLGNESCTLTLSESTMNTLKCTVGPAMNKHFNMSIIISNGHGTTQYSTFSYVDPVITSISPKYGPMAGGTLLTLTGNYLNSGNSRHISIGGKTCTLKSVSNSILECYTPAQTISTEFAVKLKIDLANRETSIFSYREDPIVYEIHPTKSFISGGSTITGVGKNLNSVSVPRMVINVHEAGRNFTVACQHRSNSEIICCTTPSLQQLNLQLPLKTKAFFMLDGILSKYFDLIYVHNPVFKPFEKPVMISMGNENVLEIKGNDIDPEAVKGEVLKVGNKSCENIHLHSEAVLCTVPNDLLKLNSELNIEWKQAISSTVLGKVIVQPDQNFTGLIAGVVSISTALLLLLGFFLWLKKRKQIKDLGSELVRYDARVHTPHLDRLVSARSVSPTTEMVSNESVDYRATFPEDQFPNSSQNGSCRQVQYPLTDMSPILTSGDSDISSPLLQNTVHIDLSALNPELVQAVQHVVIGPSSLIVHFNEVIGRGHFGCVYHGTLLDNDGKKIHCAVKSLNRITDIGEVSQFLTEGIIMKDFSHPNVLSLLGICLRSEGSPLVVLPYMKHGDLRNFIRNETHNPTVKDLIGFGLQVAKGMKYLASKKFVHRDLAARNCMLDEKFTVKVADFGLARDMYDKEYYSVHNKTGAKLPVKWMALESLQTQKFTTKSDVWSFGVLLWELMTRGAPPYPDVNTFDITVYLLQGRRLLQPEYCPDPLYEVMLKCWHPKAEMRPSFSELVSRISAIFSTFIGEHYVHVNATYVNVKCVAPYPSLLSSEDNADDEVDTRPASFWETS

Compound | IC50
COc1cc2c(Oc3ccc(NC(=S)NC(=O)Cc4ccc(F)cc4)cc3F)ccnc2cc1OCC(O)CN1CCCC1 (centres unmarked) [Example 330, 1-{3-Fluoro-4-[7-(2-hydroxy-3-pyrrolidin-1-yl-propoxy)-6-methoxy-quinolin-4-yloxy]-phenyl}-3-[2-(4-fluoro-phenyl)-acetyl]-thiourea] | 20.6 nM
COc1cc2nccc(Oc3ccc(NC(=O)NC(=O)Nc4ncccc4C)cc3)c2cc1OC [Example 233, N-(3-methyl-2-pyridyl)-({[4-(6,7-dimethoxy-quinolin-4-yloxy)anilino]carbonyl}amino)methanamide] | 322 nM
COc1cc2nccc(Oc3ccc(NC(=O)CC(=O)N(C)c4ccccc4)cc3)c2cc1OC [Example 216, N-[4-(6,7-dimethoxyquinolin-4-yloxy)phenyl]-N′-methyl-N′-phenylmalonamide] | 228 nM
COc1cc2nccc(Oc3ccc(NC(=O)CC(=O)Nc4ccc(F)cc4F)c(F)c3)c2cc1OC [Example 98, N-(2,4-difluorophenyl)-N′-[4-(6,7-dimethoxy-quinolin-4-yloxy)-2-fluorophenyl]malonamide] | 27.8 nM
COc1cc2nccc(Oc3ccc(NC(=S)NC(=O)Cc4ccc(F)cc4)cc3Cl)c2cc1OC [Example 73, 1-[3-chloro-4-(6,7-dimethoxyquinolin-4-yloxy)-phenyl]-3-[2-(4-fluorophenyl)acetyl]thiourea] | 28.1 nM
COc1cc2nccc(Oc3ccc(NC(=O)NC(=O)Nc4c(Cl)cccc4Cl)cc3)c2cc1OC [Example 263, N-(2,6-dichlorophenyl)-({[4-(6,7-dimethoxy-quinolin-4-yloxy)anilino]carbonyl}amino)methanamide] | 483 nM
COc1cc2nccc(Oc3ccc(NC(=O)CC(=O)NCC4CCCCC4)cc3)c2cc1OC [Example 218, N-cyclohexylmethyl-N′-[4-(6,7-dimethoxy-quinolin-4-yloxy)phenyl]malonamide] | 479 nM

More lines, in order of falling IC50, values ahead:

IC50 | Compound
1630 nM | COc1cc2nccc(Oc3ccc(NC(=S)NC(=O)c4ccc(C)s4)cc3)c2cc1OC [Example 160, 1-[4-(6,7-dimethoxyquinolin-4-yloxy)phenyl]-3-(5-methylthiophen-2-carbonyl)thiourea]
319 nM | COc1cc2nccc(Oc3ccc(NC(=S)NC(=O)Cc4cccc(F)c4F)c(F)c3)c2cc1OC [Example 194, 1-[2-(2,3-difluorophenyl)acetyl]-3-[4-(6,7-dimethoxyquinolin-4-yloxy)-2-fluorophenyl]thiourea]
162 nM | COc1cc2nccc(Oc3ccc(NC(=O)NC(=O)Cc4ccccc4F)cc3Cl)c2cc1OC [Example 28, 1-[3-chloro-4-(6,7-dimethoxyquinolin-4-yloxy)-phenyl]-3-[2-(2-fluorophenyl)acetyl]urea]
104 nM | COc1cc2nccc(Oc3ccc(NC(=O)NC(=O)Cc4ccsc4)c(F)c3)c2cc1OC [Example 19, 1-[4-(6,7-dimethoxyquinolin-4-yloxy)-2-fluoro-phenyl]-3-(2-thiophen-3-ylacetyl)urea]
22.4 nM | COc1cc2c(Oc3ccc(NC(=S)NC(=O)Cc4ccccc4)cc3Cl)ccnc2cc1OCCCN1CCOCC1 [Example 300, 1-{3-Chloro-4-[6-methoxy-7-(3-morpholin-4-yl-propoxy)-quinolin-4-yloxy]-phenyl}-3-phenylacetyl-thiourea]
19.7 nM | COc1cc2c(Oc3ccc(NC(=O)NC(=O)Cc4ccccc4F)cc3F)ccnc2cc1OCCCN1CCN(C)CC1 [Example 296, 1-(3-Fluoro-4-{6-methoxy-7-[3-(4-methyl-piperazin-1-yl)-propoxy]-quinolin-4-yloxy}-phenyl)-3-[2-(2-fluoro-phenyl)-acetyl]-urea]
15.3 nM | COc1cc2nccc(Oc3c(Cl)cc(NC(=S)NC(=O)Cc4ccccc4)cc3Cl)c2cc1OC [Example 70, 1-[3,5-dichloro-4-(6,7-dimethoxyquinolin-4-yloxy)phenyl]-3-phenylacetylthiourea]
